Measurements from US9738634B2, “Heterocyclic amide compound and herbicide” (SYNGENTA PARTICIPATIONS AG, priority 2013, dated 2017).

Legend:
Assay type in all cases: in vivo
black-grass [1] = experiment: Test Example 4: weedkilling efficacy by foliar treatment; H: black-grass; settings: treatment dosage 1250 g/ha
Method in brief: (§1)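 Seeds are spot-sown into sterilized diluvial soil and covered with about 1.5 cm of soil. After 14 days' greenhouse growth at 25 to 30° C, plants are sprayed on stems and leaves with diluted emulsion at the stated g/ha rate, then scored at 3 weeks.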

barnyard grass [2] = experiment: Test Example 1: weedkilling efficacy, preemergent weed treatment in the submerged state; A: barnyard grass; settings: treatment dosage 1000 g/ha
Method in brief: (§2)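 Alluvial soil in Wagner pots flooded to 4 cm; barnyard grass, bulrush and oval-leafed pondweed seeds sown, then 2.5-leaf rice seedlings transplanted. Same day, emulsified compound diluted in water to set g/ha dosages and applied to water surface; greenhouse 25–30 °C, effect scored by criteria after 3 weeks.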

green foxtail [3] = experiment: Test Example 4: weedkilling efficacy by foliar treatment; E: green foxtail; settings: treatment dosage 1250 g/ha
Method in brief: as §1

chickweed [4] = experiment: Test Example 3: weedkilling efficacy through soil treatment; N: chickweed; settings: treatment dosage 1250 g/ha
Method in brief: (§3)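 Crop and weed responses were judged three weeks after a uniform surface spray of the water-diluted emulsion at the given g/ha rate. Seeds sat beneath about 1.5 cm of sterilized diluvial soil, and boxes stood in a greenhouse at 25 to 30° C.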

directly sown rice [5] = experiment: Test Example 3: soil treatment, effect on crop; b: directly sown rice; settings: treatment dosage 1250 g/ha
Method in brief: as §3

Indian mallow [6] = experiment: Test Example 4: weedkilling efficacy by foliar treatment; K: Indian mallow; settings: treatment dosage 1250 g/ha
Method in brief: as §1

oval-leafed pondweed [7] = experiment: Test Example 1: weedkilling efficacy, preemergent weed treatment in the submerged state; C: oval-leafed pondweed; settings: treatment dosage 1000 g/ha
Method in brief: as §2

corn [8] = experiment: Test Example 3: soil treatment, effect on crop; c: corn; settings: treatment dosage 1250 g/ha
Method in brief: as §3

soybean [9] = experiment: Test Example 3: soil treatment, effect on crop; d: soybean; settings: treatment dosage 1250 g/ha
Method in brief: as §3

corn [10] = experiment: Test Example 4: foliar treatment, effect on crop; c: corn; settings: treatment dosage 1250 g/ha
Method in brief: as §1

Italian ryegrass [11] = experiment: Test Example 4: weedkilling efficacy by foliar treatment; I: Italian ryegrass; settings: treatment dosage 1250 g/ha
Method in brief: as §1

fig-leafed goosefoot [12] = experiment: Test Example 3: weedkilling efficacy through soil treatment; M: fig-leafed goosefoot; settings: treatment dosage 1250 g/ha
Method in brief: as §3

oval-leafed pondweed [13] = experiment: Test Example 2: weedkilling efficacy, growth period weed treatment in the submerged state; C: oval-leafed pondweed; settings: treatment dosage 1000 g/ha
Method in brief: (§4)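 First, alluvial soil in pots is flooded to 4 cm and mixed seed is sown. Next, plants grow in a greenhouse at 25 to 30° C until the 1-2 leaf stage. Then diluted emulsion is applied onto the water surface at the given g/ha rate, and injury is assessed after 3 weeks.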

fig-leafed goosefoot [14] = experiment: Test Example 4: weedkilling efficacy by foliar treatment; M: fig-leafed goosefoot; settings: treatment dosage 1250 g/ha
Method in brief: as §1

crabgrass [15] = experiment: Test Example 4: weedkilling efficacy by foliar treatment; D: crabgrass; settings: treatment dosage 1250 g/ha
Method in brief: as §1

wheat [16] = experiment: Test Example 4: foliar treatment, effect on crop; e: wheat; settings: treatment dosage 1250 g/ha
Method in brief: as §1

beet [17] = experiment: Test Example 3: soil treatment, effect on crop; f: beet; settings: treatment dosage 1250 g/ha
Method in brief: as §3

redroot pigweed [18] = experiment: Test Example 3: weedkilling efficacy through soil treatment; L: redroot pigweed; settings: treatment dosage 1250 g/ha
Method in brief: as §3

directly sown rice [19] = experiment: Test Example 4: foliar treatment, effect on crop; b: directly sown rice; settings: treatment dosage 1250 g/ha
Method in brief: as §1

wheat [20] = experiment: Test Example 3: soil treatment, effect on crop; e: wheat; settings: treatment dosage 1250 g/ha
Method in brief: as §3

bulrush [21] = experiment: Test Example 1: weedkilling efficacy, preemergent weed treatment in the submerged state; B: bulrush; settings: treatment dosage 1000 g/ha
Method in brief: as §2

redroot pigweed [22] = experiment: Test Example 4: weedkilling efficacy by foliar treatment; L: redroot pigweed; settings: treatment dosage 1250 g/ha
Method in brief: as §1

wild oat [23] = experiment: Test Example 4: weedkilling efficacy by foliar treatment; G: wild oat; settings: treatment dosage 1250 g/ha
Method in brief: as §1

birds-eye speedwell [24] = experiment: Test Example 3: weedkilling efficacy through soil treatment; p: birds-eye speedwell; settings: treatment dosage 1250 g/ha
Method in brief: as §3

transplanted rice = experiment: Test Example 1: preemergent weed treatment in the submerged state, effect on crop; a: transplanted rice; settings: treatment dosage 1000 g/ha
Method in brief: as §2

crabgrass [25] = experiment: Test Example 3: weedkilling efficacy through soil treatment; D: crabgrass; settings: treatment dosage 1250 g/ha
Method in brief: as §3

green foxtail [26] = experiment: Test Example 3: weedkilling efficacy through soil treatment; E: green foxtail; settings: treatment dosage 1250 g/ha
Method in brief: as §3

Italian ryegrass [27] = experiment: Test Example 3: weedkilling efficacy through soil treatment; I: Italian ryegrass; settings: treatment dosage 1250 g/ha
Method in brief: as §3

bulrush [28] = experiment: Test Example 2: weedkilling efficacy, growth period weed treatment in the submerged state; B: bulrush; settings: treatment dosage 1000 g/ha
Method in brief: as §4

Indian mallow [29] = experiment: Test Example 3: weedkilling efficacy through soil treatment; K: Indian mallow; settings: treatment dosage 1250 g/ha
Method in brief: as §3

chickweed [30] = experiment: Test Example 4: weedkilling efficacy by foliar treatment; N: chickweed; settings: treatment dosage 1250 g/ha
Method in brief: as §1

catchweed [31] = experiment: Test Example 4: weedkilling efficacy by foliar treatment; O: catchweed; settings: treatment dosage 1250 g/ha
Method in brief: as §1

wild oat [32] = experiment: Test Example 3: weedkilling efficacy through soil treatment; G: wild oat; settings: treatment dosage 1250 g/ha
Method in brief: as §3

birds-eye speedwell [33] = experiment: Test Example 4: weedkilling efficacy by foliar treatment; p: birds-eye speedwell; settings: treatment dosage 1250 g/ha
Method in brief: as §1

black-grass [34] = experiment: Test Example 3: weedkilling efficacy through soil treatment; H: black-grass; settings: treatment dosage 1250 g/ha
Method in brief: as §3

barnyard grass [35] = experiment: Test Example 2: weedkilling efficacy, growth period weed treatment in the submerged state; A: barnyard grass; settings: treatment dosage 1000 g/ha
Method in brief: as §4

catchweed [36] = experiment: Test Example 3: weedkilling efficacy through soil treatment; O: catchweed; settings: treatment dosage 1250 g/ha
Method in brief: as §3

soybean [37] = experiment: Test Example 4: foliar treatment, effect on crop; d: soybean; settings: treatment dosage 1250 g/ha
Method in brief: as §1

beet [38] = experiment: Test Example 4: foliar treatment, effect on crop; f: beet; settings: treatment dosage 1250 g/ha
Method in brief: as §1

CC1=C(c2cccnc2Cl)C(=O)N(C(C)(C)C(=O)Nc2cccc(F)n2)CO1 [B-2-19]
H (black-grass) weedkilling efficacy grade (black-grass [1]): 5 (weed kill ratio 90% or more, (practically complete withering)) | A (barnyard grass) weedkilling efficacy grade (barnyard grass [2]): 5 (weed kill ratio 90% or more, (practically complete withering)) | E (green foxtail) weedkilling efficacy grade (green foxtail [3]): 5 (weed kill ratio 90% or more, (practically complete withering)) | N (chickweed) weedkilling efficacy grade (chickweed [4]): 4 (weed kill ratio 70% or more, less than 90%) | b (directly sown rice) effect on crop grade (directly sown rice [5]): 4 (weed kill ratio 70% or more, less than 90%) | K (Indian mallow) weedkilling efficacy grade (Indian mallow [6]): 0 (weed kill ratio 5% or less (practically no effect)) | C (oval-leafed pondweed) weedkilling efficacy grade (oval-leafed pondweed [7]): 4 (weed kill ratio 70% or more, less than 90%) | c (corn) effect on crop grade (corn [8]): 0 (weed kill ratio 5% or less (practically no effect)) | d (soybean) effect on crop grade (soybean [9]): 0 (weed kill ratio 5% or less (practically no effect)) | c (corn) effect on crop grade (corn [10]): 1 (weed kill ratio 5% or more, less than 20%) | I (Italian ryegrass) weedkilling efficacy grade (Italian ryegrass [11]): 4 (weed kill ratio 70% or more, less than 90%) | M (fig-leafed goosefoot) weedkilling efficacy grade (fig-leafed goosefoot [12]): 5 (weed kill ratio 90% or more, (practically complete withering)) | C (oval-leafed pondweed) weedkilling efficacy grade (oval-leafed pondweed [13]): 3 (weed kill ratio 40% or more, less than 70%) | M (fig-leafed goosefoot) weedkilling efficacy grade (fig-leafed goosefoot [14]): 3 (weed kill ratio 40% or more, less than 70%) | D (crabgrass) weedkilling efficacy grade (crabgrass [15]): 5 (weed kill ratio 90% or more, (practically complete withering)) | e (wheat) effect on crop grade (wheat [16]): 0 (weed kill ratio 5% or less (practically no effect)) | f (beet) effect on crop grade (beet [17]): 4 (weed kill ratio 70% or more, less than 90%) | L (redroot pigweed) weedkilling efficacy grade (redroot pigweed [18]): 4 (weed kill ratio 70% or more, less than 90%) | b (directly sown rice) effect on crop grade (directly sown rice [19]): 4 (weed kill ratio 70% or more, less than 90%) | e (wheat) effect on crop grade (wheat [20]): 0 (weed kill ratio 5% or less (practically no effect)) | B (bulrush) weedkilling efficacy grade (bulrush [21]): 5 (weed kill ratio 90% or more, (practically complete withering)) | L (redroot pigweed) weedkilling efficacy grade (redroot pigweed [22]): 3 (weed kill ratio 40% or more, less than 70%) | G (wild oat) weedkilling efficacy grade (wild oat [23]): 3 (weed kill ratio 40% or more, less than 70%) | P (birds-eye speedwell) weedkilling efficacy grade (birds-eye speedwell [24]): 4 (weed kill ratio 70% or more, less than 90%) | a (transplanted rice) effect on crop grade (transplanted rice): 0 (weed kill ratio 5% or less (practically no effect)) | D (crabgrass) weedkilling efficacy grade (crabgrass [25]): 5 (weed kill ratio 90% or more, (practically complete withering)) | E (green foxtail) weedkilling efficacy grade (green foxtail [26]): 5 (weed kill ratio 90% or more, (practically complete withering)) | I (Italian ryegrass) weedkilling efficacy grade (Italian ryegrass [27]): 5 (weed kill ratio 90% or more, (practically complete withering)) | B (bulrush) weedkilling efficacy grade (bulrush [28]): 5 (weed kill ratio 90% or more, (practically complete withering)) | K (Indian mallow) weedkilling efficacy grade (Indian mallow [29]): 0 (weed kill ratio 5% or less (practically no effect)) | N (chickweed) weedkilling efficacy grade (chickweed [30]): 3 (weed kill ratio 40% or more, less than 70%) | O (catchweed) weedkilling efficacy grade (catchweed [31]): 3 (weed kill ratio 40% or more, less than 70%) | G (wild oat) weedkilling efficacy grade (wild oat [32]): 5 (weed kill ratio 90% or more, (practically complete withering)) | P (birds-eye speedwell) weedkilling efficacy grade (birds-eye speedwell [33]): 5 (weed kill ratio 90% or more, (practically complete withering)) | H (black-grass) weedkilling efficacy grade (black-grass [34]): 5 (weed kill ratio 90% or more, (practically complete withering)) | A (barnyard grass) weedkilling efficacy grade (barnyard grass [35]): 2 (weed kill ratio 20% or more, less than 40%) | O (catchweed) weedkilling efficacy grade (catchweed [36]): 0 (weed kill ratio 5% or less (practically no effect)) | d (soybean) effect on crop grade (soybean [37]): 1 (weed kill ratio 5% or more, less than 20%) | f (beet) effect on crop grade (beet [38]): 3 (weed kill ratio 40% or more, less than 70%)
